{"source": "patent US6274704A", "about": "“Peptides derived from the heparin binding domain of fibronectin” (Hisamitsu Pharmaceutical Co., Inc., priority 1996, dated 2001)", "note": "Ends that are not written are not given here.", "data": [{"tested_on": "A375 melanoma cell", "assay": "Cell adhesion inhibition activity of synthetic peptides (cell suspension includes the peptide)", "type": "cell-based", "conditions": "Concentration 200 μg/ml; adhesion to fibronectin-coated plate, 60 minutes, 0.2% DMSO", "protocol": "The above synthetic peptides were used in this experiment after being dissolved in dimethyl sulfoxide (DMSO: Wako Jyunyaku Co.). To adjust a condition of each experiment to the same, DMSO was added into phosphate buffers containing urea-non-treated Hep 2 fragment, urea-treated Hep 2 fragment, GRGDSP peptide and phosphate buffer itself as a control, respectively. The concentration of DMSO of each experiment was adjusted to 0.2% of final concentration. Inhibition activity against cell adhesion was evaluated according to the method of Fukai et al. (Biochem. Biophys. Res. Commun., 220, 394-398, 1996). In other words, the inhibition activity against cell adhesion of A375 melanoma cell to a plate was measured under the condition with or without the above various synthetic peptides. A375 melanoma cell (American Type Culture Collection: ATCC) was suspended in Dulbecco's modified eagle medium (DMEM: Gibuco Co.) including 0.1% Ovalbumin (Wako Jyunyaku Co.) to be a concentration of 2×10^5 cells/ml. Before preparing cell suspension, a plate was coated with fibronectin according to the method of Miekka et al. Specifically, phosphate buffer containing 10 μg/ml of fibronectin (FN) was prepared and 100 μl of the resultant phosphate buffer containing fibronectin was added into each well of a 96-well plate and then the plate was incubated at 37° C., 5% CO2 concentration for 60 minutes before being washed with phosphate buffer three times. Fibronectin (FN) was purified according to the method of Miekka et al. (Thromb. Res., 27, 1-14, 1982). One hundred (100) μl of the above cell suspension was added into each well of the plate and the plate was incubated at 37° C., 5% CO2 concentration for 60 minutes (Control was without any synthetic peptide). After fixing cells in each well with 5% of formaldehyde (Wako Jyunyaku Co.), non adhesion cells were removed and calls in five areas selected at random in each well were counted by the use of a microscope.\nThe addition of Hep 2 fragment and each peptide was carried out by the step in which a solution containing Hep 2 fragment or each peptides dissolved with high concentration was added to the cell suspension to obtain the final concentration of Hep 2 fragment or each peptides shown in Table 1.", "units": {"Cell adhesion inhibition activity": "%"}, "values": [{"substance": "III 12-1: peptide consisting of SEQ ID NO:1, part of Hep 2 fragment (AIPAPTDLKFTQVTPTSLSAQWTPPNVQLTG)", "Cell adhesion inhibition activity": 11}, {"substance": "III 12-2: peptide consisting of SEQ ID NO:2, part of Hep 2 fragment (INLAPDSSSVVVSGLMVATKWE)", "Cell adhesion inhibition activity": 13}, {"substance": "III 12-3: peptide consisting of SEQ ID NO:3, part of Hep 2 fragment (VSVYALKDTLTSRPAQGVVTTLE)", "Cell adhesion inhibition activity": 7}, {"substance": "III 13-1: peptide consisting of SEQ ID NO:4, part of Hep 2 fragment (NVSPPRRARVTDATETTITISWRTKTETI)", "Cell adhesion inhibition activity": 4}, {"substance": "III 13-2: peptide consisting of SEQ ID NO:5, part of Hep 2 fragment (TGFQVDAVPANGQTPIQRTIKPDVR)", "Cell adhesion inhibition activity": 11}, {"substance": "III 13-3: peptide consisting of SEQ ID NO:6, part of Hep 2 fragment (SYTITGLQPGTDYKIYLYTLNDNAR)", "Cell adhesion inhibition activity": 9}, {"substance": "III 14-1: peptide consisting of SEQ ID NO:7, part of Hep 2 fragment (NLRFLATTPNSLLVSWQPPRARITGYIIK)", "Cell adhesion inhibition activity": 11}]}, {"tested_on": "melanoma cell", "assay": "not given", "conditions": "in vivo; cited from earlier work", "values": [{"substance": "GRGDS", "inhibition of experimental metastasis of melanoma cell to lung": "inhibits experimental metastasis of melanoma cell to lung"}]}, {"tested_on": "A375 melanoma cell", "assay": "Cell adhesion inhibition activity (plate coated with fibronectin solution containing KLH modified synthetic peptide)", "type": "cell-based", "conditions": "Experiment 2, KLH modified peptides coated with fibronectin, FIG. 3", "protocol": "The above various KLH modified synthetic peptides were added to a solution containing fibronectin to obtain a given concentration, then the procedure of Experiment 1 were repeated with the exception that the resultant solution were added into 96-well plate to coat it. The experiment without any synthetic peptide is a control (the concentration of a peptide was 0 μg/m 1).", "values": [{"substance": "III 14-2A: peptide of sequence ID NO:10, a part of peptide III 14-2; tested KLH modified (RPRPGVTEATITG; also: KLH conjugated)", "cell adhesion inhibition activity (in words)": "very little cell adhesion inhibition activity"}, {"substance": "III 14-2B: peptide of sequence ID NO:11, a part of peptide III 14-2; tested KLH modified (LEPGTEYTIYVIALKNNQK; also: KLH conjugated)", "cell adhesion inhibition activity (in words)": "the same strong cell adhesion inhibition activity as that of the peptide III 14-2"}, {"substance": "III 14-2C: peptide of sequence ID NO:12, a part of peptide III 14-2; tested KLH modified (YTIYVIALKNNQK; also: KLH conjugated)", "cell adhesion inhibition activity (in words)": "the same strong cell adhesion inhibition activity as that of the peptide III 14-2"}]}]}
